Test results reported in patent publication US10598667B2, “Functional illumination in living cells” (The Regents of the University of California, priority 2013, dated 2020).
“Also recorded” adds a separate entry of the source. Like-named read-outs stand apart in the source and are kept apart here. Bridges are numbered along the chain shown (N, C = ends). Where no end group is shown, it is not given here. [ ]: non-standard residue; d: D form. pY = N[C@@H](Cc1ccc(OP(=O)(O)O)cc1)C(=O)O

Assays:
[1] = Sequential screening of PDMS affixed OBOC bead array with three dyes; format: binding; conditions: 100 μM dye in PBS, three dyes incubated sequentially on the same bead array
Description: Silicon Elastomer Base was mixed completely with Silicone Elastomer Curing Agent at ratio 10:1 in volume and the solution was kept in vacuum container for 15 to 20 minutes to eliminate the gas bubbles formed during the mixing process. After the removal of all residual bubbles, approximately 0.5-1 mL of PDMS solution was added into the bottom of a 60 mm culture dish. The dish was then spun on a single wafer spin processor (Laurell Technologies Corporation®, model WS-6505-6NPP/Lite) to evenly distribute the solution over the plates, at a speed of 4000 rpm for 30 s. A 5 μm layer of PDMS was formed on the bottom of dish and was cured at 80° C. for 5 min or at room temperature for 24 hrs to allow for beads immobilization. Knowing that the PDMS coating was about 5 μm thick and the radius of bead was around 45 μm, the percentage of free bead surface area was estimated by the formula of [1-2πrh/4πr^2]×100% (h=thickness of PDMS layer; r=radius of bead) to be approximately 95%. The library beads resuspended in 70% ethanol solution were first randomly placed on the surface of a glass plate that was 10% smaller than the dish used in the experiment. After the ethanol evaporated, a syringe needle was used to adjust the dry beads to evenly redistribute beads on the glass surface. Then the dish was inverted and the PDMS layer was pressed down onto the glass plate with beads. The library beads were embedded partly inside the PDMS layer.
Dye solutions were prepared in PBS to a 100 μM final concentration and 5 mL of each dye solution were added into the 60 mm dish with beads. Three dyes were tested sequentially. The dish was kept swirling at 60 rpm on the rotator. The dye binding was monitored for 90 minutes, and then the dye solution was removed from the dishes and PBS was added to rinse the beads on the bottom to remove the color dye. The PBS solution was changed every 30 min and the dish was always swirled as above. The beads color change was also observed and recorded at certain time interval during the whole wash process to collect data of color dissociation. Before adding the next dye solution, beads were washed with 70% ethanol to completely remove residual dye and were rinsed with PBS solution three times afterwards.
A representative positive bead for each color was selected for the color binding and dissociation study. A series of images were taken at different time points during the binding and washing process. From the images taken, regions of interest (ROI) with the same size were picked up from the color beads and colorless control beads. The value from the control bead was subtracted from the color bead to get quantitated color value for each single color bead. The measure of the color intensity for each color dye was performed using the Kodak Image Station 2000MM.
The PDMS affixed bead array was incubated with three different dyes sequentially. […] Eleven beads were selected for further analysis based on their characteristic binding profiles (FIG. 2). […] The amino acid sequences of the peptides bound to the beads were determined (Table 1).

[2] = MG binding of peptide ligands from screening and their derivatives; design: key to MG binding: −: no binding; +: weak binding; ++: mild binding; +++: strong binding; ++++: very strong binding; conditions: for MG binding: 11 hour incubation with 5 μM MG in PBS buffer (pH 7.4); for MG binding of phosphorylated form (in words): phosphorylated but not unphosphorylated form
[3] = Abltide motif OBOC library screening with MG before and after dephosphorylation; format: binding; conditions: for Post-dephos fluorescent signal: after dephosphorylation (treatment with 50% HF); for Pre-dephos fluorescent signal: before dephosphorylation; for ΔF/F: pre- vs post-dephosphorylation
Text: Screening for Library category 2 (Table 2) necessitates that the entire OBOC bead library array be scanned with and without MG or other dyes, before and after PTM. Here, we will use c-src PTK as an example. We have previously reported the use of OBOC combichem and radiosubstrate screening method to identify an efficient and specific peptide substrate (YIYGSFK; SEQ ID NO:35) for c-src PTK. […] Recently, we prepared YIY(P)GSFKKKXn (SEQ ID NO:216) libraries (X=all 19 L-amino acids except Cys, n=6-9) and screened them against MG. After 1 hr incubation, near-infra-red image of the entire immobilized library was captured. The bead library was then thoroughly washed, and dephosphorylated with 50% HF. Beads that strongly fluoresce near infra-red before dephosphorylation but fluoresce weakly (or none) after dephosphorylation were selected as candidate GESIs for c-src PTK (Table 6). Of these 8 peptides isolated from screening ˜300,000 beads, 3 has 1 Trp, and the remaining 5 have no Trp. Work is currently underway to characterize their substrate efficiency and specificity biochemically in a cell-free system and subsequently inside living cells. In principle, using various dyes and PKs to screen OBOC libraries, we should be able to develop several GESIs against several PKs that can be multiplexed with different dyes in living cells. We have developed GESIs for one serine/threonine kinase (PKA), and two tyrosine kinases (c-src and bcr-abl). Very recently, we have designed another library with a c-abl motif (“Abltide”): EAIY(P)AAPFAKKXn (SEQ ID NO:217).
After screening about one million beads with MG, we identified four peptides that greatly activate MG in phosphorylated but not dephosphorylated form (Table 7). Photomicrograph of LLT4bead is shown in FIG. 21, with a marked decrease in fluorescent signal (relative arbitrary level of 1930 to 93 and a ΔF/F value of 19; see right columns of Table 7) after dephosphorylation (treatment with 50% HF). High consensus was observed. All 4 beads have a Tyr at X7, a negative-charged amino acid at X4, hydrophobic amino acids at X1, X6 and X8 (3 out 4 have Val at X6 and Tyr at X8). Three out four beads have a positive-charged amino acid at X2 position. To discover GESIs for PKA, we will include the known PKA substrate motif (RRX[S/T]; SEQ ID NO:223) into the OBOC libraries. In some libraries, the known kinase substrate motifs will be placed between two stretches of random residues. In some cases, we have found increased (instead of decrease) fluorescence after dephosphorylation. These peptides are potential leads for developing phosphatase sensors.

[4] = Fluorescence titration of peptide in solution with MG, 2 mM Ca2+, 650 nm; format: binding
Description: Two peptides that can activate MG with or without calcium sensitivity were selected for further characterization. A solution form of the two peptides were synthesized and titrated with MG in the presence of 2 mM Ca^2+. Fluorescent signal at 650 nm was measured. […] Computational modeling confirmed stably folded structure of peptide 12 upon MG binding, preventing intramolecular motions of MG (FIG. 8B, FIG. 10A, B). […] The immobilized peptides on TentaGel beads were then titrated with an increasing amount of MG in the presence and absence of 2 mM Ca^2+. Fluorescent emission at 650 nm by each individual bead was measured. […] Computational modeling further confirmed that stably folded structure of peptide 2 only forms upon calcium binding (FIG. 11B).

Substance: CMTQEAC (synthetic genetically encoded small illuminant (GESI) peptide of bead #8)
- Dye binding ([1]; listed as # 8): Malachite green
- Dye binding ([1]; listed as #8): only bind to malachite green; also recorded: bind only to malachite green

Substance: CGNTEPC (synthetic genetically encoded small illuminant (GESI) peptide of bead #6)
- Dye binding ([1]; listed as # 6): Malachite green
- Dye binding ([1]; listed as #6): only bind to malachite green; also recorded: bind only to malachite green

Substance: CQPDLTC (not fully specified (bridges); cysteine pairing not given here; also: bead-bound) [Bead #3]
- Dye binding ([1]; listed as # 3): Malachite green
- Dye binding ([1]; listed as #3): only bind to malachite green; also recorded: bind only to malachite green

Substance: DILDDGDEIQGE (synthetic genetically encoded small illuminant (GESI) malachite green (MG) binding Peptide 1)
- MG binding [2]: +
- MG binding of phosphorylated form (in words) [2]: bound MG

Substance: 2C (CDVYI[pY]GSFKNDYIC; disulfide 1-15 (inferred)) [Peptide 2C]
- MG binding [2]: ++++

Substance: DSDSWGEYFHEE (synthetic genetically encoded small illuminant (GESI) malachite green (MG) binding Peptide 4)
- MG binding [2]: ++
- MG binding of phosphorylated form (in words) [2]: bound MG

Substance: DFMRQGVYDIPE (synthetic genetically encoded small illuminant (GESI) malachite green (MG) binding Peptide 5)
- MG binding [2]: ++
- MG binding of phosphorylated form (in words) [2]: bound MG

Substance: CEIHRIC (synthetic genetically encoded small illuminant (GESI) peptide of bead #9)
- Dye binding ([1]; listed as # 9): Bromocresol
- Dye binding ([1]; listed as #9): only bind to bromocresol purple; also recorded: bind only to bromocresol purple

Substance: EAIY(P)AAPFAKKYYVSERKW (EAI[pY]AAPFAKKYYVSERKW) [LLT3]
- Post-dephos fluorescent signal [3]: 63 relative arbitrary level
- Pre-dephos fluorescent signal [3]: 835 relative arbitrary level
- ΔF/F [3]: 12

Substance: DRDGDGDHRKIE (synthetic genetically encoded small illuminant (GESI) malachite green (MG) binding Peptide 3)
- MG binding [2]: +++

Substance: EAIY(P)AAPFAKKYYVQDSRA (EAI[pY]AAPFAKKYYVQDSRA) [LLT2]
- Post-dephos fluorescent signal [3]: 44 relative arbitrary level
- Pre-dephos fluorescent signal [3]: 575 relative arbitrary level
- ΔF/F [3]: 12

Substance: CLMNKWC (not fully specified (bridges); cysteine pairing not given here; also: bead-bound) [Bead #2]
- Dye binding ([1]; listed as #2): bind to both indigo carmine and bromocresol purple

Substance: EAIY(P)AAPFAKKLYIMDGWF (EAI[pY]AAPFAKKLYIMDGWF) [LLT4]
- Post-dephos fluorescent signal [3]: 93 relative arbitrary level
- Pre-dephos fluorescent signal [3]: 1930 relative arbitrary level
- ΔF/F [3]: 19

Substance: 5C (CDTYI[pY]GSFKVNPDC; disulfide 1-15 (inferred)) [Peptide 5C]
- MG binding [2]: +++

Substance: 3C (CDNYI[pY]GSFKNPWEWC; disulfide 1-16 (inferred)) [Peptide 3C]
- MG binding [2]: ++++

Substance: 4C (CDVYI[pY]GSFKYWPAC; disulfide 1-15 (inferred)) [Peptide 4C]
- MG binding [2]: ++++

Substance: 1C (CDDYI[pY]GSFKPYIAC; disulfide 1-15 (inferred)) [Peptide 1C]
- MG binding [2]: ++++

Substance: DWWDWGNHGYTE [Peptide 12]
- Binding characteristics in solution studies [4]: strong binding characteristics
- Kd ([4]; binding to MG, read-out: binding affinity): 0.41 nM
- Kd ([4]; peptide in solution, 2 mM Ca2+, one-site specific binding, read-out: Kd): ~0.41 nM

Substance: CHPLLPC (not fully specified (bridges); cysteine pairing not given here; also: bead-bound) [Bead #5]
- Dye binding ([1]; listed as # 5): Bromocresol
- Dye binding ([1]; listed as #5): only bind to bromocresol purple; also recorded: bind only to bromocresol purple

Substance: 3-P (DNYIYGSFKPWEWC; synthetic genetically encoded small illuminant (GESI) malachite green (MG) binding peptide 3-P from linear library L-1)
- MG binding [2]: ++

Substance: EAIY(P)AAPFAKKYYVYDMHI (EAI[pY]AAPFAKKYYVYDMHI) [LLT1]
- Post-dephos fluorescent signal [3]: 72 relative arbitrary level
- Pre-dephos fluorescent signal [3]: 939 relative arbitrary level
- ΔF/F [3]: 12

Substance: CLSDEFC (not fully specified (bridges); cysteine pairing not given here; also: bead-bound) [Bead #11]
- Dye binding ([1]; listed as # 11): Malachite green
- Dye binding ([1]; listed as #11): only bind to malachite green; also recorded: bind only to malachite green

Substance: CYKWWVC (synthetic genetically encoded small illuminant (GESI) peptide of bead #7)
- Dye binding ([1]; listed as #7): bind to both indigo carmine and bromocresol purple
